Legend:
dopamine levels = settings: normal therapeutic doses; healthy, adult men; cited from earlier work
ADHD patients = settings: versus 54% of ADHD cases with concomitant insomnia; cited from earlier work
ADHD = settings: in vivo; cited from earlier work
[1] = system: ADHD patients with insomnia disorders; assay: sleep induction by melatonin in ADHD patients with insomnia disorders first treated with methyl phenidate; assay type: in vivo, human; settings: pure melatonin 2.5 mg
[2] = system: patients who had been previously treated with methyl phenidate; settings: melatonin 3 mg; cited from earlier work
[3] = system: patients with major depressive disorder; settings: cited from earlier work
[4] = system: children with delayed sleep phase syndrome; settings: 2.5 to 7.5 mg PO once daily before expected bedtime; cited from earlier work

COC(=O)C(c1ccccc1)C1CCCCN1 (centres unmarked) [methylphenidate]
dopamine levels (PET) (dopamine levels): increased their dopamine levels
problems relating to insomnia in treated ADHD patients (ADHD patients): 64%

Clc1cccc(Cl)c1N=C1NCCN1 [clonidine]
efficacy in treating ADHD (ADHD): effective in treating ADHD

COc1ccc2[nH]cc(CCNC(C)=O)c2c1 [melatonin, N-acetyl-5-methoxytryptamine]
activity as a sleep-inducing agent [1]: active as a sleep-inducing agent
time for insomnia [2]: significant reduction in the time for insomnia
sleep quality scores ([3]; concomitant slow-release melatonin at 9 pm versus fluoxetine alone, 4 weeks): significantly improved sleep quality scores
need for additional sleep medications ([3]; concomitant slow-release melatonin with fluoxetine): avoided the need for additional sleep medications
average onset of sleep after melatonin administration [4]: ≤ 1 h

Source: patent US20060167050A1 (POOGER PROPERTIES LIMITED, priority 2002, published 2006)
